The values that follow come from article PMC3387161, “Small Molecules Targeted to a Non-Catalytic “RVxF” Binding Site of Protein Phosphatase-1 Inhibit HIV-1” (PLoS ONE, 2012).

Assay [1] relates to HIV-1 transcription in CEM-GFP cells. Briefly: cells. In kind it is cell-based. To be noted: for IC50: Human immunodeficiency virus 1, CEM-GFP, 24 h, read-out: Inhibition of HIV-1 Transcription in CEM-GFP cells (IC50, μM).
The target in another assay is T1, recombinant PP1α (Oryctolagus cuniculus, UniProt P62139).
T1 construct: purchased New England Biolabs, Ipswich, MA
T1 sequence (P62139 whole entry): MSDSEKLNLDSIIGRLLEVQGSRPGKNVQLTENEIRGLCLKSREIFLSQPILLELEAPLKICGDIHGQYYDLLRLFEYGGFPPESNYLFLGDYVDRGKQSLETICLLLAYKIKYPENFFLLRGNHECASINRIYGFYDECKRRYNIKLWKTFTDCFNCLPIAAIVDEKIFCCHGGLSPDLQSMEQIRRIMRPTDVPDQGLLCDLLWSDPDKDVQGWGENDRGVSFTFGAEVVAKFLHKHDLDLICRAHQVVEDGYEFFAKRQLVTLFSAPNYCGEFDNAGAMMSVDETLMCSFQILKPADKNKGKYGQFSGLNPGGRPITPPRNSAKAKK
The experiment in a line: Malachite green dephosphorylation of RVxF-containing hybrid pRb peptides by PP1α. Type of assay: biochemical. The note with it: peptide as substrate, no compound added. From the text: Here, we analyzed the effect of 1H4 on the binding of the Tat RVxF sequence to PP1 using hybrid PP1 substrates containing a substrate phosphopeptide linked to RVxF-containing sequences derived from Tat or NIPP1. As the substrate phosphopeptide, we used a retinoblastoma protein-derived HIPR(pS)[…] peptide (pRb) that is efficiently dephosphorylated by PP1 but not by the enzymatically-related PP2A [13]. The pRb peptide was linked to an extended RVxF-containing sequence derived from Tat ([…]) (pRb-Tat peptide) or the central domain of NIPP1 ([…]). To visualize the interaction between pRb-Tat and PP1 we built a computational model of the pRb-Tat peptide with PP1 complex (described in Materials and Methods). Based on this model, the pRb-Tat peptide is able to bind to the RVxF- accommodating groove of PP1 and, at the same time, to reach the active site of PP1 without any tension (Fig. 5A, green spheres; Fig. 5B, gray sticks). The pRb-Tat peptide was efficiently dephosphorylated by PP1 in vitro (Fig. 5C, V0 = 0.31 µM·min^-1). […] Addition of 1H4 at 3-fold molar excess (480 µM) over pRb-Tat (160 µM) inhibited pRb-Tat dephosphorylation and reduced the rate of dephosphorylation (Fig. 5C, V0 = 0.19 µM·min^−1) to the rate of pRb-Tat QACA dephosphorylation (Fig. 5C, V0 = 0.17 µM⋅min^−1). […] To further investigate the effect of 1H4 on the dephosphorylation of the pRb-Tat peptide, we analyzed the initial velocity versus pRb-Tat peptide substrate concentration plots. […] This was expected because the dephosphorylation site and the RVxF-containing sequence were fused into one hybrid substrate and 1H4 interferes with the binding of this substrate to PP1.
Figure 5 1H4 compound competes with RVxF motif. A. Superimposition of pRb-Tat peptide on the complex of PP1 with Spinophilin. PP1 surface is colored after the atom types. The spinophilin peptide is shown as magenta ribbon and the pRb-Tat peptide as orange ribbon. The Val25 and Phe27 residues of pRb-Tat and the Ile449 and Phe 451 residues of Spinophilin are shown as sticks. The 2-(N-morpholino)-ethanesulfonic acid bound in the active site of PP1 is shown in green spheres. The phosphorylated Ser6 residue of pRb-Tat peptide is shown as sticks. B. Phosphorylated Ser 6 residue binds to the active site of PP1. Comparative superimposition of pRb-Tat peptide over the crystal structure of MES bound in the active site of PP1. Catalytic resides are shown as sticks. MES is shown as green sticks, and the phosphorylated Ser6 residue of pRb-Tat peptide is shown as orange sticks. The pRb-Tat peptide is shown as orange ribbon. C. 1H4 inhibits kinetics of pRb-Tat peptide dephosphorylation by PP1α. Recombinant PP1α was assayed with pRb-Tat (WT or QACA mutant, 120 µM) in the absence or presence of 1H4 as indicated. The reactions were stopped at indicated time points and the phosphate release was quantified by malachite green assay. Initial velocity was calculated by linear regression in Prism. D. 1H4 inhibits kinetics of pRb-cdNIPP dephosphorylation by PP1α. Recombinant PP1α was assayed with pRb-cdNIPP1 in the absence or presence of 1H4 as indicated. Mutant pRb cdNIPP1 pA-RATA was used as negative control. The reactions were stopped at indicated time points and the phosphate release was quantified by malachite green assay. Initial velocity was calculated by linear regression in Prism. […] Initial rates of pRb-Tat peptide dephosphorylation by PP1α were assayed at the indicated concentrations of the substrate in the absence or presence of 300 µM 1H4 or non-HIV-1 inhibitory 1G3. The amount of the released phosphate was quantified with malachite green.
Malachite green dephosphorylation assays were carried out with the Ser/Thr phosphatase assay kit (Upstate, Lake Placid, NY) using recombinant PP1α (New England Biolabs, Ipswich, MA). […]

A further assay has as its system CEM cells. The experiment in a line: Toxicity by propidium iodide fluorescence in CEM-GFP cells. Type of assay: cell-based. To be noted: Homo sapiens, CCRF-CEM, 3 µM to 45 µM, 24 h.
Another assay concerns the target PP1α (Homo sapiens, UniProt P62136).

Values joined by “and” are separate entries in the source; they are usually repeats but may differ in a detail not shown here. Equal entries are not always repeated. Square brackets hold non-standard residues; d marks the D form. Ends that are not written are not given here. pS = N[C@@H](COP(=O)(O)O)C(=O)O

Chain of PP1α (P62136 whole entry): as the sequence (P62139 whole entry) above

Regarding `Nc1c2c(nc3ccccc13)CCCC2` [9-amino-1,2,3,4-tetrahydroacridine, reference compound], the “Activity as HIV-1 transcription inhibitor (in words)” value in assay [1] (data not shown, assay not specified) was “not active”.
Turning to “HIPR(pS)PYKFPSSPLRKKCCFHCQACAITK (HIPR[pS]PYKFPSSPLRKKCCFHCQACAITK; cysteine pairing not given here) [pRb-Tat QACA]”, the “Initial velocity V0 of peptide dephosphorylation by PP1α” value (“Initial velocity V0 … by PP1α” below) with recombinant PP1α is 0.17 µM/min and 0.17 ± 0.02 µM/min.
In the case of `CN(C1CCCCC1)S(=O)(=O)c1ccc(NC(=O)COc2ccccc2-c2ccccc2)cc1` [T5551920], the IC50 (in assay [1]; with CEM cells) was 15 µM each time.
With “HIPR[pS]PYKFPSSPLRAAAAASRATASED [pRb-NIPP1 pA-RATA]”, the “Initial velocity V0 … by PP1α” value was 0.004 µM/min with recombinant PP1α and 0.017 ± 0.004 µM/min with recombinant PP1α (listed as pRb-cdNIPP1 pA-RATA).
Take “HIPR[pS]PYKFPSSPLRKRKRKNSRVTFSED [pRb-NIPP1]”: the figures for the “Initial velocity V0 … by PP1α” value on recombinant PP1α and on recombinant PP1α (listed as pRb-cdNIPP1) were 0.56 µM/min and 0.56 ± 0.03 µM/min, respectively.
For `CC(OC(=O)c1ccccc1SCC(=O)Nc1ccc2c(c1)OCO2)C(=O)NCCC1=CCCCC1` (stereo not shown) [T5369370], the IC50 – broadly, the midpoint of a concentration-inhibition curve – came to 10 µM in assay [1] and 15 µM in the assay on CEM cells.
For the molecule `CCN(CC)S(=O)(=O)c1ccc2c(c1)nc(CCC(=O)N(C)c1ccc(C(F)(F)F)cc1)n2C` [T5326526], the half-maximal inhibitory concentration (IC50) in assay [1] was 15 µM; in the assay with CEM cells it was 10 µM.
Regarding “HIPR(pS)PYKFPSSPLRKKCCFHCQVCFITK [pRb-Tat]”, the “Initial velocity V0 … by PP1α” value with recombinant PP1α was 0.31 µM/min and 0.31 ± 0.03 µM/min.
`O=S(=O)(Nc1ccc(S(=O)(=O)N2CCC(Cc3ccccc3)CC2)cn1)c1ccccc1` [T5481237]: the IC50 was 15 µM in assay [1] and 20 µM in the assay with CEM cells.
As for `O=C(CNC(=O)c1ccccc1SCC(=O)NC12CC3CC(CC(C3)C1)C2)Nc1ccc(Cl)cc1` [T5498680], the IC50 (in assay [1]; in the assay with CEM cells) was 5 µM each time.
For the molecule `CCC(c1nnc(SCC(=O)Nc2ncc(-c3ccc(F)cc3)s2)n1Cc1ccccc1)N(C)C` (stereo not shown) [T5251659], the IC50 in assay [1] worked out at 10 µM; in the assay on CEM cells it was 6 µM.
For the molecule “HIPR[pS]PYKFPSSPL [pRb, reference compound]”, on recombinant PP1α, the “Initial velocity V0 … by PP1α” value is 0.014 µM/min.
HIPR[pS]PYKFPSSPLRKRKRKNSRVTFSED [pRb-NIPP1 peptide]: in the assay with PP1α, the initial velocity V0 of dephosphorylation of the peptide by recombinant PP1α in the presence of the small molecule 1H4 was found to be 0.37 µM⋅min^−1 and the initial velocity V0 of dephosphorylation of the peptide by recombinant PP1α in vitro (malachite green) was found to be 0.56 µM⋅min^−1.
